Test results reported in patent US9126945B2, “N-(3-carbamoylphenly)-1H-pyrazole-5-carboxamide derivatives and the use thereof for controlling animal pests” (BAYER INTELLECTUAL PROPERTY GMBH, priority 2011, dated 2015).

Key:
Type in all cases: in vivo
[1] = test system: Ctenocephalides felis; test: Ctenocephalides felis oral (CTECFE)
Experimental: Ctenocephalides felis Oral (CTECFE)
Solvent: 1 part by weight of dimethyl sulphoxide
For the purpose of producing a suitable preparation of active compound, 10 mg of active compound are mixed with 0.5 ml of dimethyl sulphoxide. A portion of the concentrate is diluted with citrated cattle blood, and the desired concentration is prepared.
(§1) About 20 unfed adult fleas (Ctenocephalides felis) are placed into a chamber which is closed at the top and bottom with gauze. A metal cylinder whose bottom end is closed with parafilm is placed onto the chamber. The cylinder contains the blood/active compound preparation, which can be taken up by the fleas through the parafilm membrane. After 2 days, the kill in % is determined.
For the purpose of preparing an appropriate active compound formulation, 10 mg of active compound are mixed with 0.5 ml of dimethyl sulphoxide. A portion of the concentrate is diluted with citrated cattle blood, and the desired concentration is prepared.
as §1, with “membrane.” for “membrane. After 2 days, the kill in % is determined.”

[2] = test system: Lucilia cuprina larvae; test: Lucilia cuprina test (LUCICU); conditions: 100 ppm; after 2 days
Experimental: Lucilia cuprina Test (LUCICU)
(§2) Solvent: dimethyl sulphoxide
Vessels containing horse meat treated with the active compound preparation of the desired concentration are populated with about 20 Lucilia cuprina larvae.
After 2 days, the kill in % is determined.

[3] = test system: Boophilus microplus; test: Boophilus microplus test (BOOPMI injection); conditions: for % Activity dat: BOOPMI injection, 7 dat
Experimental: Boophilus microplus Test (BOOPMI Injection)
as §2
The active compound solution is injected into the abdomen (Boophilus microplus), and the animals are transferred into dishes and stored in a climate-controlled room. The activity is assessed by laying of fertile eggs.
The active compound solution is injected into the abdomen (Boophilus microplus), and the animals are transferred into dishes and stored in a climate-controlled room.
The activity is assessed by laying of fertile eggs. 100% means that none of the ticks has laid any fertile eggs.

[4] = test system: Spodoptera frugiperda; test: Spodoptera frugiperda spray test (SPODFR), cotton leaves, ppm; conditions: 168 h, 7 dat
Source text: Spodoptera frugiperda Spray Test (SPODFR)
(§3) Solvent: 7 parts by weight of dimethylformamide
(§4) Emulsifier: 2 parts by weight of alkylaryl polyglycol ether
(§5) If the addition of ammonium salts or/and penetrants is required, these are in each case added in a concentration of 1000 ppm to the solution of the preparation.
Cotton leaves (Gossypium hirsutum) are sprayed with an active compound formulation of the desired concentration and populated with caterpillars of the armyworm (Spodoptera frugiperda).

[5] = test system: Heliothis armigera; test: Heliothis armigera spray test (HELIAR); conditions: Helicoverpa armigera, 168 h, 7 dat
Source text: Heliothis armigera Spray Test (HELIAR)
as §3, §4, §5

With `Cn1nc(C(F)(F)C(F)(F)F)c(C(F)(F)F)c1C(=O)Nc1ccc(Cl)c(C(=O)NC2(C#N)CC2)c1` [Example 10] the “kill in % (effect)” value ([1]; 100 ppm, after 2 days) was 100%, the inhibition at 0.8 ppm ([1]; Ctenocephalides felis, po, 48 h, CTECFE, 0.8 ppm, 2 dat) was 90% and the inhibition at 4 ppm ([1]; Ctenocephalides felis, po, 48 h, CTECFE, 4 ppm, 2 dat) was 98%. The inhibition at 20 ppm ([1]; Ctenocephalides felis, po, 48 h, CTECFE, 20 ppm, 2 dat) was 100%, the “kill in % (efficacy)” value [2] was 100% and the “efficacy in % (laying of fertile eggs)” value ([3]; 20 μg/animal, after 7 days) was 100%. For the same compound, the “% Activity dat” value ([3]; 0.16 μg/animal) was 80%, the “% Activity dat” value ([3]; 0.8 μg/animal) was 100% and the inhibition at 20 ppm [4] was 100%. It also gave an inhibition at 20 ppm ([5]; 20 ppm) of 100% and an inhibition at 100 ppm ([5]; 100 ppm) of 100%.
